Data taken from US7601686B2, “Hepatitis C virus inhibitors” (Bristol-Myers Squibb Company, priority 2005, dated 2009).
Like-named read-outs stand apart in the source and are kept apart here.

Experiments:
[1] = molecular target: T1, HCV NS3/4A protease complex, BMS strain (UniProt P27958, species not given/STRAIN_BMS); assay: FRET peptide assay to monitor HCV NS3/4A proteolytic activity (BMS strain); assay type: biochemical, Hepatitis C virus (genotype 1a)
T1 construct: DNA encoding the recombinant HCV NS3/4A protease complex (amino acids 1027 to 1711) for these strains [H77 and J4L6S]; fused on or other part: For the H77 and J4L6S constructs, a three-lysine solubilising tail at the NS4A C-terminus and a Ni-NTA-purifiable tag from pET21b
T1 sequence (P27958 1027-1657, stated change not applied, one chain of several): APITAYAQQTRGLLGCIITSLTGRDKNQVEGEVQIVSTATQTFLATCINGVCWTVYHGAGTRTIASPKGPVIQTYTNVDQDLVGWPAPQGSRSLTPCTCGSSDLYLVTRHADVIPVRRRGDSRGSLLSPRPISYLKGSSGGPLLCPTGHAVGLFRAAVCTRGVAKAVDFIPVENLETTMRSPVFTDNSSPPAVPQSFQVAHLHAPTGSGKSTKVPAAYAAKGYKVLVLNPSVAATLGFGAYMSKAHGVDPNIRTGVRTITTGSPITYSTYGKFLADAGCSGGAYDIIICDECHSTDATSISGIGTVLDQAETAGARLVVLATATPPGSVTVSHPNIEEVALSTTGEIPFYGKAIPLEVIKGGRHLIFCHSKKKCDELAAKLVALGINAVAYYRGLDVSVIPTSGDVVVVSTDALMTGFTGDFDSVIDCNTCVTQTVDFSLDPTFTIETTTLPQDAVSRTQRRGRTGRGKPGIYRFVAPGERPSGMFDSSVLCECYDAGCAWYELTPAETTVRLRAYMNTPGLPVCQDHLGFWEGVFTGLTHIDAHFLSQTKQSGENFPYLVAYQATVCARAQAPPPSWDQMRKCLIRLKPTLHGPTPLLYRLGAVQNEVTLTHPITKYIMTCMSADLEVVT
From the text: Generation of Recombinant HCV NS3/4A Protease Complex
HCV NS3 protease complexes, derived from the BMS strain, H77 strain or J4L6S strain, were generated, as described below. These purified recombinant proteins were generated for use in a homogeneous assay (see below) to provide an indication of how effective compounds of the present disclosure would be in inhibiting HCV NS3 proteolytic activity.
Serum from an HCV-infected patient was obtained from Dr. T. Wright, San Francisco Hospital. An engineered full-length cDNA (compliment deoxyribonucleic acid) template of the HCV genome (BMS strain) was constructed from DNA fragments obtained by reverse transcription-PCR (RT-PCR) of serum RNA (ribonucleic acid) and using primers selected on the basis of homology between other genotype 1a strains. From the determination of the entire genome sequence, a genotype 1a was assigned to the HCV isolate according to the classification of Simmonds et al. (See P Simmonds, K A Rose, S Graham, S W Chan, F McOmish, B C Dow, E A Follett, P L Yap and H Marsden, J. Clin. Microbiol., 31(6), 1493-1503 (1993)). […] The infectious clones, H77 (1a genotype) and J4L6S (1b genotype) were obtained from R. Purcell (NIH) and the sequences are published in Genbank (AAB67036, see Yanagi, M., Purcell, R. H., Emerson, S. U. and Bukh, J. Proc. Natl. Acad. Sci. U.S.A. 94(16), 8738-8743 (1997); AF054247, see Yanagi, M., St Claire, M., Shapiro, M., Emerson, S. U., Purcell, R. H. and Bukh, J, Virology 244 (1), 161-172. (1998)).
The H77 and J4L6S strains were used for production of recombinant NS3/4A protease complexes. DNA encoding the recombinant HCV NS3/4A protease complex (amino acids 1027 to 1711) for these strains were manipulated as described by P. Gallinari et al. (see Gallinari P, Paolini C, Brennan D, Nardi C, Steinkuhler C, De Francesco R. Biochemistry. 38(17):5620-32, (1999)). Briefly, a three-lysine solubilizing tail was added at the 3′-end of the NS4A coding region. The cysteine in the P1 position of the NS4A-NS4B cleavage site (amino acid 1711) was changed to a glycine to avoid the proteolytic cleavage of the lysine tag. Furthermore, a cysteine to serine mutation was introduced by PCR at amino acid position 1454 to prevent the autolytic cleavage in the NS3 helicase domain. The variant DNA fragment was cloned in the pET21b bacterial expression vector (Novagen) and the NS3/4A complex was expressed in Escherichia coli strain BL21 (DE3) (Invitrogen) following the protocol described by P. Gallinari et al. (see Gallinari P, Brennan D, Nardi C, Brunetti M, Tomei L, Steinkuhler C, De Francesco R., J. Virol. 72(8):6758-69 (1998)) with modifications. Briefly, the NS3/4A protease complex expression was induced with 0.5 millimolar (mM) Isopropyl β-D-1-thiogalactopyranoside (IPTG) for 22 hours (h) at 20° C. A typical fermentation (1 Liter (L)) yielded approximately 10 grams (g) of wet cell paste. The cells were resuspended in lysis buffer (10 mL/g) consisting of 25 mM N-(2-Hydroxyethyl)piperazine-N′-(2-Ethane Sulfonic acid) (HEPES), pH 7.5, 20% glycerol, 500 mM Sodium Chloride (NaCl), 0.5% Triton X-100, 1 microgram/milliliter (“μg/mL”) lysozyme, 5 mM Magnesium Chloride (MgCl2), 1 μg/mL DnaseI, 5 mM β-Mercaptoethanol (βME), Protease inhibitor—Ethylenediamine Tetraacetic acid (EDTA) free (Roche), homogenized and incubated for 20 minutes (min) at 4° C. The homogenate was sonicated and clarified by ultra-centrifugation at 235000 g for 1 h at 4° C. Imidazole was added to the supernatant to a final concentration of 15 mM and the pH adjusted to 8.0. The crude protein extract was loaded on a Nickel—Nitrilotriacetic acid (Ni-NTA) column pre-equilibrated with buffer B (25 mM HEPES, pH 8.0, 20% glycerol, 500 mM NaCl, 0.5% Triton X-100, 15 mM imidazole, 5 mM βME). The sample was loaded at a flow rate of 1 mL/min. The column was washed with 15 column volumes of buffer C (same as buffer B except with 0.2% Triton X-100). […]

[2] = system: HCV replicon in HUH-7 cells; assay: HCV replicon FRET assay; assay type: cell-based, Hepatitis C virus (strain 1b); settings: Hepatitis C virus
From the text: Generation of HCV Replicon
An HCV replicon whole cell system was established as described by Lohmann V, Korner F, Koch J, Herian U, Theilmann L, Bartenschlager R., Science 285(5424):110-3 (1999). This system enabled us to evaluate the effects of our HCV Protease compounds on HCV RNA replication. Briefly, using the HCV strain 1b sequence described in the Lohmann paper (Assession number:AJ238799), an HCV cDNA was synthesized by Operon Technologies, Inc. (Alameda, Calif.), and the full-length replicon was then assembled in plasmid pGem9zf(+) (Promega, Madison, Wis.) using standard molecular biology techniques. The replicon consists of (i) the HCV 5′ UTR fused to the first 12 amino acids of the capsid protein, (ii) the neomycin phosphotransferase gene (neo), (iii) the IRES from encephalomyocarditis virus (EMCV), and (iv) HCV NS3 to NS5B genes and the HCV 3′ UTR. Plasmid DNAs were linearized with ScaI and RNA transcripts were synthesized in vitro using the T7 MegaScript transcription kit (Ambion, Austin, Tex.) according to manufacturer's directions. In vitro transcripts of the cDNA were transfected into the human hepatoma cell line, HUH-7. […] Resulting cell lines were characterized for positive and negative strand RNA production and protein production over time.
The HCV replicon FRET assay was developed to monitor the inhibitory effects of compounds described in the disclosure on HCV viral replication. HUH-7 cells, constitutively expressing the HCV replicon, were grown in Dulbecco's Modified Eagle Media (DMEM) (Gibco-BRL) containing 10% Fetal calf serum (FCS) (Sigma) and 1 mg/mL G418 (Gibco-BRL). Cells were seeded the night before (1.5×10^4 cells/well) in 96-well tissue-culture sterile plates. Compound and no compound controls were prepared in DMEM containing 4% FCS, 1:100 Penicillin/Streptomysin (Gibco-BRL), 1:100 L-glutamine and 5% DMSO in the dilution plate (0.5% DMSO final concentration in the assay). Compound/DMSO mixes were added to the cells and incubated for 4 days at 37° C. After 4 days, cells were first assessed for cytotoxicity using alamar Blue (Trek Diagnotstic Systems) for a CC50 reading. The toxicity of compound (CC50) was determined by adding 1/10th volume of alamar Blue to the media incubating the cells. After 4 h, the fluorescence signal from each well was read, with an excitation wavelength at 530 nm and an emission wavelength of 580 nm, using the Cytofluor Series 4000 (Perspective Biosystems). Plates were then rinsed thoroughly with Phosphate-Buffered Saline (PBS) (3 times 150 μl).

[3] = NS3/4A BMS strain, enzyme assay; read-out: IC 50 Range
[4] = HCV replicon cell assay, HUH-7, read-out: EC50 Range
[5] = read-out: IC 50 Range; NS3/4A BMS strain, enzyme assay

`C=CC1CC1(NC(=O)[C@@H]1C[C@@H](NC(=O)c2cc(Cl)nc3ccccc23)CN1C(=O)[C@@H](NC(=O)CC1CC1)C(C)(C)C)C(=O)NS(=O)(=O)C1CC1` (stereo partly shown) [Compound 13] was tested, and the IC50 [1, 3] was 0.15 to 15 µM and the EC50 [2, 4] was > 15 µM.

`C=CC1CC1(NC(=O)[C@@H]1C[C@@H](NC(=O)NCc2ccccc2)CN1C(=O)[C@@H](NC(=O)OC(C)(C)C)C(C)(C)C)C(=O)NS(=O)(=O)C1CC1` (stereo partly shown) [Compound 44] was tested, and the IC50 [1, 3] was 0.15 to 15 µM and the EC50 [2, 4] was > 15 µM.

`C=CC1CC1(NC(=O)[C@@H]1C[C@@H](NC(=O)OC2=NCc3ccccc32)CN1C(=O)[C@@H](NC(=O)CC1CC1)C(C)(C)C)C(=O)NS(=O)(=O)C1CC1` (stereo partly shown) [Compound 52] was tested, and the IC50 [1, 5] was < 0.15 µM and the EC50 [2, 4] was 0.15 to 15 µM.

For `C=CC1CC1(NC(=O)[C@@H]1C[C@@H](NC(=O)OCC2c3ccccc3-c3ccccc32)CN1C(=O)[C@@H](NC(=O)OC(C)(C)C)C(C)(C)C)C(=O)NS(=O)(=O)C1CC1` (mixture of isomers) [Compound 5, [1-(2-tert-butoxycarbonylamino-3,3-dimethyl-butyryl)-5-(1-cyclopropanesulfonylaminocarbonyl-2-vinyl-cyclopropylcarbamoyl)-pyrrolidin-3-yl]-carbamic acid 9H-fluoren-9-ylmethyl ester], the IC50 [1, 5] was 0.15 to 15 µM and the EC50 [2, 4] was 0.15 to 15 µM.

For `C=CC1CC1(NC(=O)[C@@H]1C[C@@H](NS(=O)(=O)c2cccc3c(N(C)C)cccc23)CN1C(=O)[C@@H](NC(=O)OC(C)(C)C)C(C)(C)C)C(=O)NS(=O)(=O)C1CC1` (stereo partly shown) [Compound 49], the IC50 [1, 3] was 0.15 to 15 µM and the EC50 [2, 4] was > 15 µM.

In the case of `C=CC1CC1(NC(=O)[C@@H]1C[C@@H](NC(=O)c2ccccc2-c2ccccc2)CN1C(=O)[C@@H](NC(=O)CC1CC1)C(C)(C)C)C(=O)NS(=O)(=O)C1CC1` (stereo partly shown) [Compound 38], the IC50 [1, 3] is reported as 0.15 to 15 µM and the EC50 [2, 4] is reported as > 15 µM.

With `C=CC1CC1(NC(=O)[C@@H]1C[C@@H](NC(=O)c2coc3ccccc3c2=O)CN1C(=O)[C@@H](NC(=O)CC1CC1)C(C)(C)C)C(=O)NS(=O)(=O)C1CC1` (stereo partly shown) [Compound 39] the IC50 [1, 3] was < 0.15 µM and the EC50 [2, 4] was 0.15 to 15 µM.

With `C=CC1CC1(NC(=O)[C@@H]1C[C@@H](NC(=O)c2cccc3cccnc23)CN1C(=O)[C@@H](NC(=O)CC1CC1)C(C)(C)C)C(=O)NS(=O)(=O)C1CC1` (stereo partly shown) [Compound 31] the IC50 [1, 3] was < 0.15 µM and the EC50 [2, 4] was 0.15 to 15 µM.

For `C=CC1CC1(NC(=O)[C@@H]1C[C@@H](NC(=S)NCc2ccccc2)CN1C(=O)[C@@H](NC(=O)OC(C)(C)C)C(C)(C)C)C(=O)NS(=O)(=O)C1CC1` (stereo partly shown) [Compound 45], the IC50 [1, 5] was 0.15 to 15 µM and the EC50 [2, 4] was > 15 µM.

`C=CC1CC1(NC(=O)[C@@H]1C[C@@H](NC(=O)c2ccccc2OC)CN1C(=O)[C@@H](NC(=O)CC1CC1)C(C)(C)C)C(=O)NS(=O)(=O)C1CC1` (stereo partly shown) [Compound 35] was tested, and the IC50 [1, 5] was 0.15 to 15 µM and the EC50 [2, 4] was > 15 µM.

In the case of `C=CC1CC1(NC(=O)[C@@H]1C[C@@H](NC(=O)c2ccc3ccccc3n2)CN1C(=O)[C@@H](NC(=O)CC1CC1)C(C)(C)C)C(=O)NS(=O)(=O)C1CC1` (stereo partly shown) [Compound 25], the IC50 [1, 3] is reported as < 0.15 µM and the EC50 [2, 4] is reported as 0.15 to 15 µM.

For `C=CC1CC1(NC(=O)[C@@H]1C[C@@H](NC(=O)c2c(C)nc3ccccn23)CN1C(=O)[C@@H](NC(=O)CC1CC1)C(C)(C)C)C(=O)NS(=O)(=O)C1CC1` (stereo partly shown) [Compound 17], the IC50 [1, 3] was < 0.15 µM and the EC50 [2, 4] was > 15 µM.

`C=CC1CC1(NC(=O)[C@@H]1C[C@@H](NC(=O)n2c(=O)oc3ccccc32)CN1C(=O)[C@@H](NC(=O)CC1CC1)C(C)(C)C)C(=O)NS(=O)(=O)C1CC1` (stereo partly shown) [Compound 53] was tested, and the IC50 [1, 5] was < 0.15 µM and the EC50 [2, 4] was > 15 µM.

With `C=CC1CC1(NC(=O)[C@@H]1C[C@@H](NC(=O)c2ccc3cnccc3n2)CN1C(=O)[C@@H](NC(=O)CC1CC1)C(C)(C)C)C(=O)NS(=O)(=O)C1CC1` (stereo partly shown) [Compound 41] the IC50 [1, 3] was < 0.15 µM and the EC50 [2, 4] was > 15 µM.

For `C=CC1CC1(NC(=O)[C@@H]1CC(NC(=O)c2cc(-c3ccccc3)nc3ccccc23)CN1C(=O)[C@@H](NC(=O)OC(C)(C)C)C(C)(C)C)C(=O)NS(=O)(=O)C1CC1` (stereo partly shown) [Compound 6], the IC50 [1, 3] was < 0.15 µM and the EC50 [2, 4] was 0.15 to 15 µM.

For `C=CC1CC1(NC(=O)[C@@H]1C[C@@H](NC(=O)c2nccc3ccccc23)CN1C(=O)[C@@H](NC(=O)CC1CC1)C(C)(C)C)C(=O)NS(=O)(=O)C1CC1` (stereo partly shown) [Compound 24], the IC50 [1, 3] was 0.15 to 15 µM and the EC50 [2, 4] was > 15 µM.

With `C=CC1CC1(NC(=O)[C@@H]1C[C@@H](NS(=O)(=O)c2cccc3ccccc23)CN1C(=O)[C@@H](NC(=O)OC(C)(C)C)C(C)(C)C)C(=O)NS(=O)(=O)C1CC1` (stereo partly shown) [Compound 48] the IC50 [1, 3] was 0.15 to 15 µM and the EC50 [2, 4] was > 15 µM.

`C=CC1CC1(NC(=O)[C@@H]1C[C@@H](NC(=O)c2ccnc3ccccc23)CN1C(=O)[C@@H](NC(=O)CC1CC1)C(C)(C)C)C(=O)NS(=O)(=O)C1CC1` (stereo partly shown) [Compound 10] was tested, and the IC50 [1, 3] was 0.15 to 15 µM and the EC50 [2, 4] was > 15 µM.

In the case of `C=CC1CC1(NC(=O)[C@@H]1C[C@@H](NC(=O)OCC2c3ccccc3-c3ccccc32)CN1C(=O)[C@@H](NC(=O)CC1CC1)C(C)(C)C)C(=O)NS(=O)(=O)C1CC1` (stereo partly shown) [Compound 7], the IC50 [1, 3] is reported as 0.15 to 15 µM and the EC50 [2, 4] is reported as > 15 µM.

`C=CC1CC1(NC(=O)[C@@H]1C[C@@H](NC(=O)n2ccc3ccccc32)CN1C(=O)[C@@H](NC(=O)CC1CC1)C(C)(C)C)C(=O)NS(=O)(=O)C1CC1` (stereo partly shown) [Compound 51] was tested, and the IC50 [1, 5] was < 0.15 µM and the EC50 ([2]; Huh-7, read-out: EC50 Range) was 0.15 to 15 µM.
